Test results: article PMC11788587, “Validating Low‐Dose Iohexol as a Marker for Glomerular Filtration Rate by In Vitro and In Vivo Studies” (Clinical and Translational Science, 2025)
Where two headings read alike, the source gives them in different places.

What was measured:
OCT2 [1] = system: OCT2; set-up: method as in ref 15 Yang et al.; conditions: rat kidneys; ref 15 Yang et al.; cited from earlier work
hMDR1 = molecular target: T1, hMDR1 (Homo sapiens, UniProt P08183); experiment: Inhibition of hMDR1-mediated 3H-NMQ uptake, inside-out membrane vesicles; format: biochemical; conditions: substrate 0.01 µM 3H-NMQ, median (95% CI)
T1 construct: purchased Pharm Tox, Netherlands; host or cells: HEK293 cells (membrane vesicles)
T1 sequence (P08183 whole entry): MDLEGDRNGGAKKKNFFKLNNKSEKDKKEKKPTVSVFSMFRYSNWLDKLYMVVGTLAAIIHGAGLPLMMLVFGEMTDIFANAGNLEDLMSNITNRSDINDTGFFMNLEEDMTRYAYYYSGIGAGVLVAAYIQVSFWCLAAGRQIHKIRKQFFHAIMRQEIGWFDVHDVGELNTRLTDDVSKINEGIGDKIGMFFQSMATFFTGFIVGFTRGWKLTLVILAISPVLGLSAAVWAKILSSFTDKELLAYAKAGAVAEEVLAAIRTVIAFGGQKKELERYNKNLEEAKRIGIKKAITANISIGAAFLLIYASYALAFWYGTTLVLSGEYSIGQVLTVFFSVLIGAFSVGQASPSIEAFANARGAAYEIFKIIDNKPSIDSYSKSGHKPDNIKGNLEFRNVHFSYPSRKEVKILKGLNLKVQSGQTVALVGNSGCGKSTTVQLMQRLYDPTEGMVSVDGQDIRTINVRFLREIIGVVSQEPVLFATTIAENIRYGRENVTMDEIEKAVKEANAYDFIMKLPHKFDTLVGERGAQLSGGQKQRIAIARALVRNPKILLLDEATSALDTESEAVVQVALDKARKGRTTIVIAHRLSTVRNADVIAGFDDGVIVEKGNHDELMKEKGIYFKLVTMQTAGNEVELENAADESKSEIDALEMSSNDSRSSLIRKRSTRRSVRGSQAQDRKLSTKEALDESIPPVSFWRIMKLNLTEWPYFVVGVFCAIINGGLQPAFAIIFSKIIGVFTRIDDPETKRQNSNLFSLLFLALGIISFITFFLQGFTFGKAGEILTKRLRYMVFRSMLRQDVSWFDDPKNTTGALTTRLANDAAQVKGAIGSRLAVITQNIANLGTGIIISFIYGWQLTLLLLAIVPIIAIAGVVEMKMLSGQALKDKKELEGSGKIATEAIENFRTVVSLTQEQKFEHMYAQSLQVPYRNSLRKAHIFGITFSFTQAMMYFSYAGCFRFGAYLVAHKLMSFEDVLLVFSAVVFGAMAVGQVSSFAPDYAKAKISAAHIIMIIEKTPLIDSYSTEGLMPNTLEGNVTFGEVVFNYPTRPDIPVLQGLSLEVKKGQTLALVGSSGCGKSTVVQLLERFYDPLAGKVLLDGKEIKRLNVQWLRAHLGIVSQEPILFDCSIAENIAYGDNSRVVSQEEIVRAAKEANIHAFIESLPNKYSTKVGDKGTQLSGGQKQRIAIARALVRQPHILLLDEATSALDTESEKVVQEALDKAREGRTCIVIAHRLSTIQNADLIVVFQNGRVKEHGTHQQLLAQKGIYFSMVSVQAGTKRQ
From the text: (§1) We characterized the inhibitory potential of iohexol on major drug transporters recommended by regulatory agencies, which were previously assessed in a clinical transporter phenotyping cocktail study. These transporters include hOAT1, hOAT3, hOCT1, hOCT2, hMATE1, hMATE2K, human organic anion transporter polypeptides (hOATP)1B1, hOATP1B3, and human multidrug resistance protein (hMDR)1. Additionally, we investigated whether iohexol is a substrate for any of the renal transporters among these, including hOAT1/3, hOCT1/2, and hMATE1/2K. Cell‐based uptake assays were used to assess the activities of hOAT1/3, hOCT1/2, hMATE1/2K, and hOATP1B1/1B3. Inside‐out membrane vesicle uptake assays were used to evaluate the activity of hMDR1.
To determine the maximal inhibitory potential of iohexol, intracellular accumulation of a standard substrate was measured with and without the clinically relevant highest concentrations of iohexol. Control inhibitors were tested in each experiment.
In all subsequent in vitro studies, control experiments were conducted to validate the results. […] Each condition, including cells or vesicles with the transporter and their respective controls, was analyzed in at least three replicates. […]
R version 4.2.1 (R Foundation for Statistical Computing, Vienna, Austria) was used for statistical evaluations and data visualization. The data analysis approach for the in vitro study was detailed by Hsin CH et al..^1 In brief, for transport assays, the initial uptake rate was calculated by normalizing the substrate concentration to both the protein concentration and the incubation time for each dish or well. The transporter-mediated uptake rate (net uptake) was determined by performing an element-wise subtraction of uptake rates from different conditions. […] Net uptake rates were determined by subtracting the uptake rate of the control cells or vesicles from that of the transporter-expressing cells or vesicles for each pair. […]

hMATE2K = molecular target: T2, hMATE2K (Homo sapiens, UniProt Q86VL8); experiment: Substrate assessment: iohexol uptake in 293 cells expressing hMATE2K vs control; format: in vitro ADME; conditions: 10 μM iohexol, median (95% CI)
T2 construct: expressed in transfected cells; host or cells: HEK-293 (293) cells, pEBTetD plasmid, doxycycline-induced
T2 sequence (Q86VL8 1-566 isoform Q86VL8-3): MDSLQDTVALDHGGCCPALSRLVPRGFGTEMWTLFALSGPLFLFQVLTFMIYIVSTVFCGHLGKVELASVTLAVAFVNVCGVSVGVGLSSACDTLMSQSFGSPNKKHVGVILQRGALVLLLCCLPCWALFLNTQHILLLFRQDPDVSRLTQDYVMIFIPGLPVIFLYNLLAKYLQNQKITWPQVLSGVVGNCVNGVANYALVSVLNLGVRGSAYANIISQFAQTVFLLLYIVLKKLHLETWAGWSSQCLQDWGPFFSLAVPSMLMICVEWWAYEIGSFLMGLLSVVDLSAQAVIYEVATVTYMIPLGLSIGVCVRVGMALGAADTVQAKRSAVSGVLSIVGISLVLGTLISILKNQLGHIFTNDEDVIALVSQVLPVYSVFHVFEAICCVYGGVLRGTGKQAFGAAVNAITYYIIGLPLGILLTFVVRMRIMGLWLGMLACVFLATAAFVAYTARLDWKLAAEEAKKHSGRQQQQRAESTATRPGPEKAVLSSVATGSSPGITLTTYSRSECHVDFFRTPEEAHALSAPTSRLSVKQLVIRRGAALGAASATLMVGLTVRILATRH
From the text: as §1
For substrate assessments, iohexol was incubated with stably transfected HEK‐293 cells expressing one of the following transporters: hOAT1, hOAT3, hOCT1, hOCT2, hMATE1, or hMATE2K, as well as with control cells lacking transporter expression. Stably transfected cell lines containing pEBTetD plasmids with wild‐type human transporter cDNAs were generated as previously described. Transporter expression was induced by adding 1 μg/mL doxycycline to the growth medium for at least 20 h. Iohexol would be considered a substrate for these transporters if: (1) the ratio of iohexol uptake in cells expressing the transporter to that in control cells was ≥ 2, and (2) a known inhibitor of the transporter reduced iohexol uptake to ≤ 50% at concentrations ≥ 10 times its inhibition constant or half‐maximal inhibitory concentration.
Uptake assays were performed using stably transfected 293 cells, with or without the expression of one of the following transporters: hOAT1, hOAT3, hOCT1, hOCT2, hMATE1, or hMATE2K, as previously described.^1
For the substrate assessment, cells were incubated with 10 µM iohexol for 10 minutes and 30 minutes for each transporter. Inhibition assays were performed using specific standard substrates for each transporter: 10 µM para-aminohippuric acid (PAH) for hOAT1, 3 µM estrone-3-sulfate (E3S) for hOAT3, 50 µM metformin for hOCT1, 5 µM metformin for hOCT2, and 3 µM 1-methyl-4-phenylpyridinium (MPP+) for hMATE1 and hMATE2K. […]
R version 4.2.1 (R Foundation for Statistical Computing, Vienna, Austria) was used for statistical evaluations and data visualization. The data analysis approach for the in vitro study was detailed by Hsin CH et al..^1 In brief, for transport assays, the initial uptake rate was calculated by normalizing the substrate concentration to both the protein concentration and the incubation time for each dish or well. The transporter-mediated uptake rate (net uptake) was determined by performing an element-wise subtraction of uptake rates from different conditions. […]

OCT2 [2] = system: OCT2; set-up: method as in ref 15 Yang et al.; conditions: HK‐2 cells; ref 15 Yang et al.; cited from earlier work

For `CC(=O)N(CC(O)CO)c1c(I)c(C(=O)NCC(O)CO)c(I)c(C(=O)NCC(O)CO)c1I` (stereo not drawn) [iohexol], the “Expression of OCT2” value (OCT2 [1]) is given as “downregulated”, the “Inhibitory effect (% reduction of specific activity)” value (hMDR1; 20 mM iohexol) is given as < 30% and the inhibition at 1 min, 2 mM (hMDR1; human, probe 3H-NMQ (N-methyl-quinidine), 0.01 µM, 2 mM iohexol, read-out: Inhibitory effect (% reduction of specific activity)) is given as -4.9%. The inhibition at 1 min, 20 mM (hMDR1; human, probe 3H-NMQ (N-methyl-quinidine), 0.01 µM, 20 mM iohexol, read-out: Inhibitory effect (% reduction of specific activity)) was 21%, the “Differences in intracellular accumulation (expression on minus off)” value (hMATE2K; 10 minutes) was -0.36 (-1.1 to 0.24) pmol/mg protein and the “Uptake ratio (transporter-expressing vs non-expressing cells)” value (hMATE2K; 10 minutes) was 0.95 (0.81 to 1.1). For the same molecule, the “Differences in intracellular accumulation (expression on minus off)” value (hMATE2K; 30 minutes) was 0.62 (-0.38 to 1.5) pmol/mg protein, the “Uptake ratio (transporter-expressing vs non-expressing cells)” value (hMATE2K; 30 minutes) was 1.1 (0.93 to 1.4) and the “Expression of OCT2” value (OCT2 [2]) was “downregulated”.
